Reference: patent US9458181B2, “Cathepsin cysteine protease inhibitors” (Merck Sharp & Dohme Corp., priority 2013, dated 2016)

What was measured:
human cathepsin K = human cathepsin K (UniProt P43236); experiment: Cathepsin K Assay (hrbCat K); assay type: biochemical; conditions: human cathepsin K 0.4 nM, Z-Leu-Arg-AMC 8 μM, pH 5.5, 15 min preincubation; read-out: hrbCat K IP
In short: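 Human cathepsin K (0.4 nM) in pH 5.5 MES buffer with EDTA, DTT and 10% DMSO was preincubated 15 min at room temperature with compound from a ⅓ dilution series (500-0.025 μM DMSO stocks). Z-Leu-Arg-AMC (8 μM) was then added, and AMC release was followed fluorometrically (Ex 360/Em 460 nm) for 30 min; inhibition was fitted to a dose-response model.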

human cathepsin F = biological target: T1, human cathepsin F (Homo sapiens, UniProt Q9UBX1); experiment: Cathepsin F assay (hCat F); assay type: biochemical; conditions: human cathepsin F 10 nM, Z-Phe-Arg-AMC 8 μM, pH 5.5, 15 min preincubation; read-out: hCat F IP
T1 sequence (Q9UBX1 271-484): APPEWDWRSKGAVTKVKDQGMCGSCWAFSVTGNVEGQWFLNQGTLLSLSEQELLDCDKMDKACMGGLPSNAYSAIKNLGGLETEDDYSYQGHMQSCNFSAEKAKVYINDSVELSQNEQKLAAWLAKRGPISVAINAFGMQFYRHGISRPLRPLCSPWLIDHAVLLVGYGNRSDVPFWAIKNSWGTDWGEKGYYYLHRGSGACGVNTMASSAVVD
In short: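 Fluorogenic read-out: cleavage of Z-Phe-Arg-AMC (8 μM in added buffer) was followed at Ex 360/Em 460 nm for 20 min, with dose-response fitting of percent inhibition. Before substrate addition, 10 nM human enzyme was incubated 15 min at room temperature with compounds (DMSO stocks 500–0.025 μM) in pH 5.5 MES/EDTA/DTT buffer containing 10% DMSO.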

| Structure (SMILES) | IC50 (human cathepsin K) [nM] | IC50 (human cathepsin F) [nM] |
| --- | --- | --- |
| N#CC1(NC(=O)[C@@H]2CCCC[C@H]2c2oc(-c3ccc(C(F)(F)F)cn3)nc2-c2ccc(N3CCS(=O)(=O)CC3)cc2)CC1 [Example 81, (1R,2R)-N-(1-cyanocyclopropyl)-2-(4-(4-(1,1-dioxidothiomorpholino)phenyl)-2-(5-(trifluoromethyl)pyridin-2-yl)oxazol-5-yl)cyclohexanecarboxamide] | 2.99 | 3060 |
| Cc1nccc(-c2nc(-c3ccc(N4CCS(=O)(=O)CC4)cc3)c([C@@H]3CCCC[C@H]3C(=O)NC3(C#N)CC3)o2)n1 [Example 82, (1R,2R)-N-(1-cyanocyclopropyl)-2-(4-(4-(1,1-dioxidothiomorpholino)phenyl)-2-(2-methylpyrimidin-4-yl)oxazol-5-yl)cyclohexanecarboxamide] | 2.66 | 5140 |
| N#CC1(NC(=O)[C@@H]2CCCC[C@H]2c2oc(-c3cc(C(F)(F)F)ccn3)nc2-c2ccc(N3CCS(=O)(=O)CC3)cc2)CC1 [Example 83, (1R,2R)-N-(1-cyanocyclopropyl)-2-(4-(4-(1,1-dioxidothiomorpholino)phenyl)-2-(4-(trifluoromethyl)pyridin-2-yl)oxazol-5-yl)cyclohexanecarboxamide] | 1.3 | 4150 |
| N#CC1(NC(=O)[C@@H]2CCCC[C@H]2c2oc(-c3ncccc3F)nc2-c2ccc(N3CCS(=O)(=O)CC3)cc2)CC1 [Example 84, (1R,2R)-N-(1-cyanocyclopropyl)-2-(4-(4-(1,1-dioxidothiomorpholino)phenyl)-2-(3-fluoropyridin-2-yl)oxazol-5-yl)cyclohexanecarboxamide] | 2.92 | 4230 |
| N#CC1(NC(=O)[C@@H]2CCCC[C@H]2c2oc(-c3cnc(C(F)(F)F)nc3)nc2-c2ccc(N3CCS(=O)(=O)CC3)cc2)CC1 [Example 85, (1R,2R)-N-(1-cyanocyclopropyl)-2-(4-(4-(1,1-dioxidothiomorpholino)phenyl)-2-(2-(trifluoromethyl)pyrimidin-5-yl)oxazol-5-yl)cyclohexanecarboxamide] | 1.57 | 2520 |
| N#CC1(NC(=O)[C@@H]2CCCC[C@H]2c2oc(-c3cccc(OC(F)(F)F)c3)nc2-c2ccc(N3CCS(=O)(=O)CC3)cc2)CC1 [Example 86, (1R,2R)-N-(1-cyanocyclopropyl)-2-(4-(4-(1,1-dioxidothiomorpholino)phenyl)-2-(3-(trifluoromethoxy)phenyl)oxazol-5-yl)cyclohexanecarboxamide] | 2.62 | 1830 |
| N#CC1(NC(=O)[C@@H]2CCCC[C@H]2c2oc(-c3cncc(C(F)(F)F)c3)nc2-c2ccc(N3CCS(=O)(=O)CC3)cc2)CC1 [Example 88, (1R,2R)-N-(1-cyanocyclopropyl)-2-(4-(4-(1,1-dioxidothiomorpholino)phenyl)-2-(5-(trifluoromethyl)pyridin-3-yl)oxazol-5-yl)cyclohexanecarboxamide] | 2.21 | 2380 |
| CC(C)(C)c1ccc(-c2nc(-c3ccc(N4CCS(=O)(=O)CC4)cc3)c([C@@H]3CCCC[C@H]3C(=O)NC3(C#N)CC3)o2)cc1 [Example 89, (1R,2R)-2-(2-(4-(tert-butyl)phenyl)-4-(4-(1,1-dioxidothiomorpholino)phenyl)oxazol-5-yl)-N-(1-cyanocyclopropyl) cyclohexanecarboxamide] | 1.35 | 819 |
| N#CC1(NC(=O)[C@@H]2CCCC[C@H]2c2oc(-c3ncccn3)nc2-c2ccc(N3CCS(=O)(=O)CC3)cc2)CC1 [Example 90, (1R,2R)-N-(1-cyanocyclopropyl)-2-(4-(4-(1,1-dioxidothiomorpholino)phenyl)-2-(pyrimidin-2-yl)oxazol-5-yl)cyclohexanecarboxamide] | 7.28 | ≥ 10000 |
| N#CC1(NC(=O)[C@@H]2CCCC[C@H]2c2oc(-c3ccc(OC(F)F)nc3)nc2-c2ccc(N3CCS(=O)(=O)CC3)cc2)CC1 [Example 91, (1R,2R)-N-(1-cyanocyclopropyl)-2-(2-(6-(difluoromethoxy)pyridin-3-yl)-4-(4-(1,1-dioxidothiomorpholino)phenyl)oxazol-5-yl)cyclohexanecarboxamide] | 1.3 | 1670 |
| N#CC1(NC(=O)[C@@H]2CCCC[C@H]2c2oc(-c3cncc(N4CCS(=O)(=O)CC4)c3)nc2-c2ccc(N3CCS(=O)(=O)CC3)cc2)CC1 [Example 92, (1R,2R)-N-(1-cyanocyclopropyl)-2-(4-(4-(1,1-dioxidothiomorpholino)phenyl)-2-(5-(1,1-dioxidothiomorpholino)pyridin-3-yl)oxazol-5-yl)cyclohexanecarboxamide] | 0.92 | 803 |
| N#Cc1cccc(-c2nc(-c3ccc(N4CCS(=O)(=O)CC4)cc3)c([C@@H]3CCCC[C@H]3C(=O)NC3(C#N)CC3)o2)c1 [Example 93, (1R,2R)-N-(1-cyanocyclopropyl)-2-(2-(3-cyanophenyl)-4-(4-(1,1-dioxidothiomorpholino)phenyl)oxazol-5-yl)cyclohexanecarboxamide] | 1.89 | 1100 |
| N#CC1(NC(=O)[C@@H]2CCCC[C@H]2c2oc(-c3ccc(Cl)cc3F)nc2-c2ccc(N3CCS(=O)(=O)CC3)cc2)CC1 [Example 94, (1R,2R)-2-(2-(4-chloro-2-fluorophenyl)-4-(4-(1,1-dioxidothiomorpholino)phenyl)oxazol-5-yl)-N-(1-cyanocyclopropyl) cyclohexanecarboxamide] | 1.2 | 380 |
| N#CC1(NC(=O)[C@@H]2CCCC[C@H]2c2oc(-c3cncc(Cl)c3)nc2-c2ccc(N3CCS(=O)(=O)CC3)cc2)CC1 [Example 95, (1R,2R)-2-(2-(5-chloropyridin-3-yl)-4-(4-(1,1-dioxidothiomorpholino)phenyl)oxazol-5-yl)-N-(1-cyanocyclopropyl) cyclohexanecarboxamide] | 1.17 | 775 |
| N#CC1(NC(=O)[C@@H]2CCCC[C@H]2c2oc(-c3ccccc3OC(F)F)nc2-c2ccc(N3CCS(=O)(=O)CC3)cc2)CC1 [Example 96, (1R,2R)-N-(1-cyanocyclopropyl)-2-(2-(2-(difluoromethoxy)phenyl)-4-(4-(1,1-dioxidothiomorpholino)phenyl)oxazol-5-yl)cyclohexanecarboxamide] | 0.87 | 363 |
| N#CC1(NC(=O)[C@@H]2CCCC[C@H]2c2oc(-c3cccnn3)nc2-c2ccc(N3CCS(=O)(=O)CC3)cc2)CC1 [Example 97, (1R,2R)-N-(1-cyanocyclopropyl)-2-(4-(4-(1,1-dioxidothiomorpholino)phenyl)-2-(pyridazin-3-yl)oxazol-5-yl)cyclohexanecarboxamide] | 2.83 | 2550 |
| N#CC1(NC(=O)[C@@H]2CCCC[C@H]2c2oc(C3C4CC3C4)nc2-c2ccc(N3CCS(=O)(=O)CC3)cc2)CC1 (stereo partly drawn) [Example 98, (1R,2R)-2-(2-(bicyclo[1.1.1]pentan-2-yl)-4-(4-(1,1-dioxidothiomorpholino)phenyl)oxazol-5-yl)-N-(1-cyanocyclopropyl) cyclohexanecarboxamide] | 1.43 | 2310 |
| CC1(c2nc(-c3ccc(N4CCS(=O)(=O)CC4)cc3)c([C@@H]3CCCC[C@H]3C(=O)NC3(C#N)CC3)o2)CCOCC1 [Example 99, (1R,2R)-N-(1-cyanocyclopropyl)-2-(4-(4-(1,1-dioxidothiomorpholino)phenyl)-2-(4-methyltetrahydro-2H-pyran-4-yl)oxazol-5-yl)cyclohexanecarboxamide] | 1.89 | 2230 |
| N#CC1(NC(=O)[C@@H]2CCCC[C@H]2c2oc(-c3cccc(C(F)(F)F)n3)nc2-c2ccc(N3CCS(=O)(=O)CC3)cc2)CC1 [Example 100, (1R,2R)-N-(1-cyanocyclopropyl)-2-(4-(4-(1,1-dioxidothiomorpholino)phenyl)-2-(6-(trifluoromethyl)pyridin-2-yl)oxazol-5-yl)cyclohexanecarboxamide] | 4.11 | 2860 |
| N#CC1(NC(=O)[C@@H]2CCCC[C@H]2c2oc(-c3ccc(C4CC4)cc3)nc2-c2ccc(N3CCS(=O)(=O)CC3)cc2)CC1 [Example 101, (1R,2R)-N-(1-cyanocyclopropyl)-2-(2-(4-cyclopropylphenyl)-4-(4-(1,1-dioxidothiomorpholino)phenyl)oxazol-5-yl)cyclohexanecarboxamide] | 0.88 | 377 |
| N#CC1(NC(=O)[C@@H]2CCCC[C@H]2c2oc(-c3ccc(F)cc3)nc2-c2ccc(N3CCS(=O)(=O)CC3)c(Br)c2)CC1 [Example 102, (1R,2R)-2-(4-(3-bromo-4-(1,1-dioxidothiomorpholino)phenyl)-2-(4-fluorophenyl)oxazol-5-yl)-N-(1-cyanocyclopropyl) cyclohexanecarboxamide] | 54.5 | 416 |
| Cc1ncc(-c2nc(-c3ccc(N4CCS(=O)(=O)CC4)cc3)c([C@@H]3CCCC[C@H]3C(=O)NC3(C#N)CC3)o2)cn1 [Example 103, (1R,2R)-N-(1-cyanocyclopropyl)-2-(4-(4-(1,1-dioxidothiomorpholino)phenyl)-2-(2-methylpyrimidin-5-yl)oxazol-5-yl)cyclohexanecarboxamide] | 1.35 | 1840 |
